From PMC6992764 (Nature Communications, 2020) come the findings set out here.

Data set [1] relates to LLC tumor cells. The data set can be described thus: LLC tumor cell growth (WST-1 assay). The class given is cell-based. The settings on record: 48 h. On the technique in general: Tetrazolium assays rely on reduction of a dye to a coloured formazan, in cell work by metabolically active cells.
Experimental: (§1) To evaluate the effects of compounds on cell growth, cells were incubated with inhibitors for 48 h, then WST-1 (Dojindo) was added to the culture for the final 30 min. An Envision instrument (PerkinElmer) was used to measure the absorbance of each well at 450 nm versus a 650-nm reference to detect the amount of formazan produced from WST-1 by mitochondrial dehydrogenases in viable cells.
Data set [2] has as its system B16 tumor cells. Nature of the data set: B16 tumor cell growth (WST-1 assay). The class given is cell-based. The settings on record: B16, 48 h.
Experimental: as §1
In data set [3] the test system is LLC tumor cells.
Data set [4] has as its system B16 tumor cells.
The target of data set [5] is T1, Full-length FROUNT protein (Homo sapiens, UniProt Q9BW27).
T1 construct: made in house
T1 sequence (Q9BW27 1-656): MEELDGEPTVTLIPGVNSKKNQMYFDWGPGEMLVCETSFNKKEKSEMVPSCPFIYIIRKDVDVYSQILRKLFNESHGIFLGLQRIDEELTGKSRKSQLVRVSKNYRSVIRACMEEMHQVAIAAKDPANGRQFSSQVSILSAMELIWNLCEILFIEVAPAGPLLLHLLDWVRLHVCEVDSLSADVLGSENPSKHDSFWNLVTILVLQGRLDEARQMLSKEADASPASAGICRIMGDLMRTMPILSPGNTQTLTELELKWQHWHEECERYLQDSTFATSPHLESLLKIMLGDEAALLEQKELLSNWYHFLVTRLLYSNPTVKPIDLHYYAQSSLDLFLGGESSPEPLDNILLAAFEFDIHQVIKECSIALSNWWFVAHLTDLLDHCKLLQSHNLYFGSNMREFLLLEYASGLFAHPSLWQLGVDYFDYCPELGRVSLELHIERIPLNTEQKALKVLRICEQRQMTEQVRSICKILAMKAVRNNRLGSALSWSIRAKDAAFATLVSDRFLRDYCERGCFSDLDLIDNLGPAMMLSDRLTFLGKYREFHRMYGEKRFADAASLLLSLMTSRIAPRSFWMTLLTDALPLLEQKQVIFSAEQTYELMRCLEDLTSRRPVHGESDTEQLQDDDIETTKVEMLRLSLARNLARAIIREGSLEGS
The data set can be described thus: Surface plasmon resonance binding to FROUNT. The settings on record: SPR, concentration-dependent. How it is done: Interactions between FROUNT and library compounds were analyzed by surface plasmon resonance using a Biacore T100 (GE Healthcare). Full-length FROUNT protein or the FROUNT-binding region of CCR2 was immobilized on the CM5 sensor chip[56]. […] The resonance unit (RU) was measured during the binding and washing periods, and the binding kinetics were analyzed. Solvent correction with DMSO was performed using Biacore T100 evaluation software.

For data set [6], the target named is T2, CRBD of FROUNT (a.a. 532-656) bearing the L538E/P612S mutations (Homo sapiens, UniProt Q9BW27, L538E/P612S).
T2 construct: 50 µM CRBD of FROUNT (a.a. 532–656) bearing the L538E/P612S mutations or its mutant (C603S); made in house
T2 sequence (Q9BW27 532-656 L538E/P612S): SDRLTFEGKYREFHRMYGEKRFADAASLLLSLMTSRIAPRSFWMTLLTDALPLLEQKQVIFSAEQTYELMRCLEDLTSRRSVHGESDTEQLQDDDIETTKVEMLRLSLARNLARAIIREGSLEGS
The data set can be described thus: NMR titration (1H-15N HSQC) of CRBD of FROUNT. The class given is binding. Conditions: 12.5-50 µM compound, 50 µM CRBD. As for the experimental part: All ^1H–^15N heteronuclear single quantum correlation (HSQC) NMR spectra were measured at 25 °C on a Bruker 600-MHz AVANCE III spectrometer with a cryogenic probe. […] The assignments of the backbone ^1H^N and ^15N NMR signals of CRBD were performed, based on the previous paper. […] Combined chemical shift differences Δδ was calculated by Δδ = [(ΔδHN)^2 + (ΔδN/6.5)^2]^1/2, where ΔδHN and ΔδN are the chemical shift differences for ^1H^N and ^15N, respectively.

Data set [7] addresses T3, FROUNT-CCR2 interaction (Homo sapiens, UniProt Q9BW27).
T3 construct: GST-fused FROUNT (FNT-C)
T3 sequence (Q9BW27 500-656 limits assumed): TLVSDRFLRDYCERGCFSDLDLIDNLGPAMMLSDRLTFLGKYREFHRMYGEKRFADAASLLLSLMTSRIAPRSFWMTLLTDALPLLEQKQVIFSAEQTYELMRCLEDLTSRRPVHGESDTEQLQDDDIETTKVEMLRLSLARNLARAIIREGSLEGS
The data set can be described thus: HTRF FROUNT-CCR2 interaction assay. The class given is binding. Conditions: HTRF. (In TR-FRET formats the signal depends on donor and acceptor labels being close together.)

The subject of data set [8] is THP-1 cells. Nature of the data set: Chemotaxis inhibition assay (chemoTX chamber, CCL2). The class given is cell-based, human. Conditions: towards CCL2, 90 min. How it is done:
Chemotaxis was measured in a 96-well chemoTX chemotaxis chamber with a polycarbonate filter (5-μm pore size) (Neuro probe). Human CCL2 (R&D Systems) was added to the lower chamber of the plate and the cells were added to the upper chamber. After incubation at 37 °C and 5% CO2 for 90 min, the filter was removed and the number of migrated cells in the lower chamber was counted using a cell counting kit F (Dojindo). Data are expressed as migration efficiency (percentage of the maximal migration).

Data set [9] has as its system ALDH. Nature of the data set: ALDH activity assay (ALDEFLUOR). The class given is cell-based, human. Conditions: THP-1 cells, 33 µM, 30 min. As for the experimental part: THP-1 cells were incubated for 30 min with medium containing DMSO or inhibitors at the concentration of 33 μM then washed and incubated with ALDEFLUOR reagent ([…] Technologies) in assay buffer according to the manufacturer’s instruction. Fluorescence derived from substrate metabolized by cellular ALDH were measured by Gallios cytometer.

Data set [10] has as its system peritoneal macrophages. The data set can be described thus: CCL2-induced pseudopodia protrusion of macrophages. The class given is cell-based, mice. The settings on record: 25 µM, 1 h pre-incubation. As for the experimental part: Peritoneal macrophages were isolated from mice, seeded in the 8-well glass-based dishes (Life Technologies) and incubated overnight at 37 °C to allow the cells to adhere. After serum starvation for 6 h, cells were stimulated with chemokine at a concentration of 100 ng mL^–1, then fixed with 4% paraformaldehyde (Wako) and permeabilized with 0.1% Triton X-100 (Wako) in PBS, followed by staining with phalloidin conjugated with Alexa Fluor 594 (Life Technologies). […] Tumor macrophages were isolated from collagenase digestion of tumor tissue as attached cells by washing non-adherent cells away and further culturing them in DMEM containing 10 nM M-CSF (BD Biosciences) and 10% serum. After co-culture with LLC tumor cells, confocal images were obtained using an SP5 confocal microscope (Leica Microsystems). Cells were classified as lamellipodial/round-shaped or filopodial based on their morphology and the ratio of each type in the visual field determined.

Data set [11] deals with monocyte (CD11b+Gr-1-Ly-6C+) chemotaxis to CCL2. The data set can be described thus: Flow cytometry-based chemotaxis assay. The class given is cell-based, mice. Conditions: 20 µM wortmannin pre-incubation. How it is done:
Bone marrow cells were mechanically flushed from the femurs and tibias of Frount-floxed mice and FROUNT-cKO mice. After incubation in ammonium chloride to lyse red blood cells, nucleated cells were incubated with the following antibodies: PE-conjugated Gr-1 (clone RB6-8C5, dilution 1:400, Cat 553128), Pacific blue-conjugated Ly-6C ([…], dilution 1:400, Cat 128014), and allophycocyanin-conjugated CD11b (clone M1/70, dilution 1:400, Cat 101212). Cells were washed and adjusted to 2 × 10^7 cells mL^−1 in chemotaxis buffer. Cells were pre-incubated with 20 μM wortmannin before the assay as necessary. The chemokines murine CCL2 (Peprotech) were added to the lower chamber and 25 μL of cell suspension was added to the upper chamber of a 5-μm pore-sized chemoTX plate. After incubation at 37 °C under 5% CO2 atmosphere for 90 min, migrated cells were collected and cell populations were determined by surface expression of stained antibody in each population using a Gallios flow cytometer (Beckman coulter). Data are expressed as a migration index (number of migrated cells in the presence of chemoattractant divided by the cell number in the absence of chemokine).
For orientation: A flow cytometer gives signals particle by particle.

Take `O=c1[nH]cc(F)c(=O)[nH]1` [5FU]: the in vitro growth result in data set [1] and in data set [2] was “affected” throughout. In addition, the viability entry in [3] and in data set [4] was “affected” each time.
Take `CCN(CC)C(=S)S` [DDC, sodium diethyldithiocarbamate]: the “binding to FROUNT protein” value in [5] is reported as “did not bind”. For the same compound, the “chemical shift perturbations in CRBD” value in [6] is “no significant perturbation”.
Turning to `NC(=O)Nc1sc(-c2ccc(F)cc2)cc1C(N)=O` [IKK-IV], the in vitro growth result in data set [1] and in data set [2] was “affected” each time. The viability result in [3] and in data set [4] was “affected” in each case.
As to `N#CN` [cyanamide], the “inhibition of FROUNT-CCR2 interaction” value in data set [7] is on record as “did not block”. Besides, the cellular chemotaxis result in [8] is reported as “did not block”. In addition, the ALDH inhibition activity result in data set [9] was “more potently than DSF”.
Regarding `COC[C@H]1OC(=O)c2coc3c2[C@@]1(C)C1=C(C3=O)[C@@H]2CCC(=O)[C@@]2(C)C[C@H]1OC(C)=O` [wortmannin], the CCL2-induced pseudopodia protrusion entry in data set [10] is “inhibition”. Moreover, in data set [11], the “migration in response to CCL2 stimulation” value was “inhibited”.
